Structures can show the parent of a compound that is named as a salt. Where two headings read alike, the source gives them in different places.
Legend:
[1] = target: BaF3 cells into which JAK2 V617F gene was introduced (Homo sapiens, UniProt O60674, V617F, cells depend on it); assay: Test 2: growth inhibitory action against variant JAK2 expressed cells (MTT method); assay type: cell-based; details: incubation for 3 days, triplicate, read-out: concentration of the test material which inhibited 50% of the cell growth (IC50)
Sequence of BaF3 cells into which JAK2 V617F gene was introduced (O60674 whole entry V617F): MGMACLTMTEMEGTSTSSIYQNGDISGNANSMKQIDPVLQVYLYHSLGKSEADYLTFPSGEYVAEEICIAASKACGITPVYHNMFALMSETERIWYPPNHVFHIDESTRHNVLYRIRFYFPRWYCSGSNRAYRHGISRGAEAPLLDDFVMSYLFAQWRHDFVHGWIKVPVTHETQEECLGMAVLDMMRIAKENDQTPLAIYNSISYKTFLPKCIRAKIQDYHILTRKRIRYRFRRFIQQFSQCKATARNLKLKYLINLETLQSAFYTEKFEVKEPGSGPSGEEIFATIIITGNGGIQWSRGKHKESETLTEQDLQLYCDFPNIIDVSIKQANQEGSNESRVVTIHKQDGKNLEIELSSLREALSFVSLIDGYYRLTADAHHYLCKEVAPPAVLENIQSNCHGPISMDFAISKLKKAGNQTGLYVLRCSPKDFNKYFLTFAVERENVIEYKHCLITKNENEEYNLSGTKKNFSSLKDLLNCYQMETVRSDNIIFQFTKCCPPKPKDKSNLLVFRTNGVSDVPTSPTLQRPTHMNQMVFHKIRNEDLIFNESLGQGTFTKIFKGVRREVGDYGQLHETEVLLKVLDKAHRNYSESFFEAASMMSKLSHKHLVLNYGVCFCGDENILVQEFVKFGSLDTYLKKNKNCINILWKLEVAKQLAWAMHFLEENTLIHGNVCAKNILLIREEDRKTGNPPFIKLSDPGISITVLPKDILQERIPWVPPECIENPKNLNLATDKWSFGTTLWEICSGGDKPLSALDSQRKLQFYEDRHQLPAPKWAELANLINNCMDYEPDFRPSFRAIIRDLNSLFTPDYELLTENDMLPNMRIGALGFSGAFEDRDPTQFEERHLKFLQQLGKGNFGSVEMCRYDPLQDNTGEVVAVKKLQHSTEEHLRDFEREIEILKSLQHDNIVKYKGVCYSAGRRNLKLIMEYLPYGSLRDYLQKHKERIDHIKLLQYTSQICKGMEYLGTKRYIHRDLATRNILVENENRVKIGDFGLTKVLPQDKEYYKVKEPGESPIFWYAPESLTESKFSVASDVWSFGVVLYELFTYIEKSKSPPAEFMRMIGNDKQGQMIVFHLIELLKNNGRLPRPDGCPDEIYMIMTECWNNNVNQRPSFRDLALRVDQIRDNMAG
Description: Test 2: Growth inhibitory action against variant JAK2 expressed cells
BaF3 cells into which JAK2 V617F gene was introduced ([…]) were inoculated on a 96-well plate in an amount of 1×10^3 cells/well and allowed to stand in a CO2 incubator. Next day, the test material was added to the cells. The test material was serially diluted with DMSO to give 10 mM, 6 mM, 3 mM, 1 mM, 600 μM, 300 μM, 100 μM, 60 μM, 30 μM, or 10 μM solution. This was diluted 100 times with distilled water to give 100 μM, 60 μM, 30 μM, 10 μM, 6 μM, 3 μM, 1 μM, 600 nM, 300 nM, or 100 nM solution. This solution of test material was added to the well in an amount of 10 μl/well. As a negative control, 1% DMSO solution was added to the well in an amount of 10 μl/well. In the above operation, the final concentration of the test material became 10 μM, 6 μM, 3 μM, 1 μM, 600 nM, 300 nM, 100 nM, 60 nM, 30 nM, 10 nM, or 0 nM (0.1% DMSO solution). The addition of the test material solution to each well was made in triplicate.
After continuous incubation for 3 days, the viable count was determined by an MTT method. The MTT method was carried out as follows. First, 10 μl each of solution containing 5 mg/ml of MTT (3-(4,5-dimethylthiazol-2-yl)-2,5-diphenyltetrazolium bromide) was added to each well. The plate was allowed to stand in a CO2 incubator for 4 hours, and then 100 μl of 0.04N HCl/2-propanol solution was added to each well to stop the reaction. The generated MTT-formazan was dissolved well with a multi-channel pipette, and the absorbance at 595 nm was measured with reference to that at 655 nm (Thermo Co.; Multiskan FC). Non-linear regression analysis was made by means of a SAS system (SAS Institute Inc.), and the concentration (IC50) of the test material which inhibited 50% of the cell growth was estimated.

JAK3 tyrosine kinase = target: T1, JAK3 tyrosine kinase (Homo sapiens, UniProt P52333); assay: Test 1: inhibitory activity to JAK3 tyrosine kinase (ELISA); assay type: biochemical; details: 25 μM ATP in substrate solution, 30° C. for 1 hour, n=2
T1 construct: purchased Carnabioscience Co
T1 sequence (P52333 1-1124): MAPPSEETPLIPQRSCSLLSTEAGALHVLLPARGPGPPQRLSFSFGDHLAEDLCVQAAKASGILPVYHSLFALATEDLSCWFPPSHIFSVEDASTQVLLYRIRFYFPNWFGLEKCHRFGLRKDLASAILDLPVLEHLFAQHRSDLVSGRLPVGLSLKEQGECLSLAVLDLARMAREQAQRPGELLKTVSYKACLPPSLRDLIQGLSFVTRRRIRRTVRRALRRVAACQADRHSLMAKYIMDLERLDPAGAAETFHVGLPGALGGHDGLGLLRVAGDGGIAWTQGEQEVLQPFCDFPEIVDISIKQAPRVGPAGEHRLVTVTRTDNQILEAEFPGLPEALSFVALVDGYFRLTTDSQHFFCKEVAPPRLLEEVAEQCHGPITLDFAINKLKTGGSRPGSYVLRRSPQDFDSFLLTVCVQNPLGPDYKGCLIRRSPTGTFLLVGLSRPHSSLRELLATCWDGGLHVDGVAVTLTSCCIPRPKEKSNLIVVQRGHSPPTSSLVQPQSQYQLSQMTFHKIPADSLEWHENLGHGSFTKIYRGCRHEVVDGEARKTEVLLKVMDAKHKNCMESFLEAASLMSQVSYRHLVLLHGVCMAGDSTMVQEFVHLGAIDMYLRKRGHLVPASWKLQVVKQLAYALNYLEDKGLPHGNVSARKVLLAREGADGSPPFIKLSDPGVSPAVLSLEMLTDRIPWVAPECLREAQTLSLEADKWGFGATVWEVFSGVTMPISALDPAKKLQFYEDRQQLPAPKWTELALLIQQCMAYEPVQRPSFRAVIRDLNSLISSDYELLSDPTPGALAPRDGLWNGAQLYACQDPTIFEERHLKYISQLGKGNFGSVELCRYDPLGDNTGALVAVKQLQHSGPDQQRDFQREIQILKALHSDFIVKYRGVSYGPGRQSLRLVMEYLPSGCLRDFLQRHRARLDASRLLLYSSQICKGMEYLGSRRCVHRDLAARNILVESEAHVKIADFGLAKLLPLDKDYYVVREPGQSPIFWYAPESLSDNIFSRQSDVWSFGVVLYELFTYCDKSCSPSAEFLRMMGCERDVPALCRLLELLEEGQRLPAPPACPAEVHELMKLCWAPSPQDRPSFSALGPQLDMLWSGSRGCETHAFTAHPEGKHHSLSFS
Method in brief: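 ELISA of JAK3 kinase activity with absorbance read at 450 nm. Compounds were tested from DMSO dilution series at 100-fold the measurement concentrations (1000–0.01 μM), diluted up to 20 times in assay buffer, against a DMSO negative control. IC50 was estimated by non-linear regression of absorbance.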

JAK2 tyrosine kinase = target: T2, JAK2 tyrosine kinase (Homo sapiens, UniProt O60674); assay: Test 1: inhibitory activity to JAK2 tyrosine kinase (ELISA); assay type: biochemical; details: 25 μM ATP in substrate solution, 30° C. for 1 hour, n=2
T2 construct: purchased Carnabioscience Co
T2 sequence (O60674 whole entry): as the sequence (O60674 whole entry V617F) above, with F617V counted along it
Method in brief: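 This is an ELISA read at A450 (HRP anti-phosphotyrosine antibody, TMB) of biotin-peptide phosphorylation captured on streptavidin. Enzyme solution was 0.75 nM JAK2, and the substrate solution was 625 nM peptide with 25 μM ATP in Tris pH 7.5 buffer. The reaction ran 1 h at 30 °C with compounds in duplicate, and IC50 was fitted non-linearly.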

| Compound | GI50 [1] [nM] | IC50 (JAK3 tyrosine kinase) [nM] | IC50 (JAK2 tyrosine kinase) [nM] | GI50 ([1]; maleate) [nM] |
| --- | --- | --- | --- | --- |
| CC(=O)N[C@H]1CCN(c2cc(Nc3cnccn3)nc(N[C@@H](C)c3ccc(F)cc3)n2)C1 [Example 2, N-{(S)-1-[2-{[(S)-1-(4-Fluorophenyl)ethyl]amino-}-6-(pyrazin-2-ylamino)pyrimidin-4-yl]pyrrolidin-3-yl}acetamide hydrochloride] | 70 | 43 | 0.49 | – |
| C[C@H](Nc1nc(Nc2cnccn2)cc(N2CCC(O)C2)n1)c1ccc(F)cc1 (stereo partly drawn) [Example 50, 1-{2-[(S)-1-(4-Fluorophenyl)ethylamino]-6-(pyrazin-2-ylamino)pyrimidin-4-yl}pyrrolidin-3-ol hydrochloride] | 53 | 29 | 0.84 | – |
| C[C@H](Nc1nc(Nc2cnccn2)cc(N2CCC(C(N)=O)CC2)n1)c1ccc(F)cc1 [Example 56, (S)-1-{2-[1-(4-Fluorophenyl)ethylamino]-6-(pyrazin-2-ylamino)pyrimidin-4-yl}piperidine-4-carboxamide hydrochloride] | 81 | 24 | 0.79 | – |
| C[C@H](Nc1nc(Nc2cnccn2)cc(N2CC(N3CCN(C)CC3)C2)n1)c1ccc(F)cc1 [Example 224, (S)—N^2-[1-(4-Fluorophenyl)ethyl]-6-[3-(4-methylpiperazin-1-yl)azetidin-1-yl]-N^4-(pyrazin-2-yl)pyrimidine-2,4-diamine] | 94 | 16 | 1.1 | – |
| C[C@H](Nc1cc(-c2ccc(O)nc2)cc(Nc2cnccn2)n1)c1ccc(F)cc1 [Example 7, (S)-2′-[1-(4-Fluorophenyl)ethylamino]-6′-(pyrazin-2-ylamino)-3,4′-bipyridin-6-ol hydrochloride] | 90 | 39 | 0.42 | – |
| CC(=O)N[C@@H]1CCN(c2cc(Nc3cnccn3)nc(N[C@@H](C)c3ccc(F)cc3)n2)C1 [Example 27, N—((R)-1-{2-[(S)-1-(4-Fluorophenyl)ethylamino]-6-(pyrazin-2-ylamino)pyrimidin-4-}pyrrolidin-3-yl)acetamide hydrochloride] | 89 | 42 | 0.52 | – |
| CC(=O)NCC1CN(c2cc(Nc3cnccn3)nc(N[C@@H](C)c3ccc(F)cc3)n2)C1 [Example 232, (S)—N-[(1-{2-[1-(4-Fluorophenyl)ethylamino]-6-(pyrazin-2-ylamino)pyrimidin-4-yl}azetidin-3-yl)methyl]acetamide] | 88 | 32 | 0.55 | – |
| C[C@H](Nc1nc(Nc2cnccn2)cc(N2CCNC(=O)C2)n1)c1ccc(F)cc1 [Example 1, (S)-4-{2-[1-(4-Fluorophenyl)ethylamino]-6-(pyrazin-2-ylamino)pyrimidin-4-yl}piperazin-2-one] | 83 | 45 | 0.94 | – |
| C[C@H](Nc1nc(Nc2cnccn2)cc(N2CCOCC2)n1)c1ccc(F)cc1 [Example 31, (S)—N^2-[1-(4-Fluorophenyl)ethyl]-6-morpholino-N^4-(pyrazin-2-yl)pyrimidine-2,4-diamine maleate] | – | 26 | 0.41 | 87 |
| CCCNC(=O)c1cc(Nc2cnccn2)nc(N[C@@H](C)c2ccc(F)cc2)c1 [Example 166, (S)-2-[1-(4-Fluorophenyl)ethylamino]-N-propyl-6-(pyrazin-2-ylamino)isonicotinamide] | 64 | 380 | 2.2 | – |
| CC(C)CNC(=O)c1cc(Nc2cnccn2)nc(N[C@@H](C)c2ccc(F)cc2)c1 [Example 170, (S)-2-[1-(4-Fluorophenyl)ethylamino]-N-isobutyl-6-(pyrazin-2-ylamino) isonicotinamide] | 77 | 180 | 1.2 | – |
